According to ChEMBL document CHEMBL3112480, “γ-Alkylidene-γ-lactones and isobutylpyrrol-2(5H)-ones analogues to rubrolides as inhibitors of biofilm formation by gram-positive and gram-negative bacteria” (Bioorg Med Chem Lett, 2014):
Converted amounts (≈) assume the structure as drawn.

How the values were obtained:
Staphylococcus aureus [1] = test: Antibacterial activity against Staphylococcus aureus ATCC 25923 assessed as effect on planktonic growth at 43.8 ug/ml after 20 hrs relative to control; assay type: functional
Streptococcus mutans [2] = test: Antibacterial activity against Streptococcus mutans ATCC 25175 assessed as effect on planktonic growth at 0.17 ug/ml after 20 hrs relative to control; assay type: functional
Streptococcus mutans [3] = test: Antibacterial activity against Streptococcus mutans ATCC 25175 assessed as effect on planktonic growth at 1.37 ug/ml after 20 hrs relative to control; assay type: functional
Staphylococcus aureus [4] = test: Antibacterial activity against Staphylococcus aureus ATCC 25923 assessed as effect on planktonic growth at 10.9 ug/ml after 20 hrs relative to control; assay type: functional
[5] = system: Staphylococcus epidermidis; test: Antibacterial activity against Staphylococcus epidermidis ATCC 35547 assessed as effect on planktonic growth at 43.8 ug/ml after 20 hrs relative to control; assay type: functional
Staphylococcus aureus [6] = test: Antibacterial activity against Staphylococcus aureus ATCC 25923 assessed as effect on planktonic growth at 2.73 ug/ml after 20 hrs relative to control; assay type: functional
Staphylococcus aureus [7] = test: Antibacterial activity against Staphylococcus aureus ATCC 25923 assessed as effect on planktonic growth at 87.5 ug/ml after 20 hrs relative to control; assay type: functional
[8] = system: Staphylococcus epidermidis; test: Antibacterial activity against Staphylococcus epidermidis ATCC 35547 assessed as effect on planktonic growth at 0.17 ug/ml after 20 hrs relative to control; assay type: functional
[9] = system: Staphylococcus epidermidis; test: Antibacterial activity against Staphylococcus epidermidis ATCC 35547 assessed as effect on planktonic growth at 0.68 ug/ml after 20 hrs relative to control; assay type: functional
Streptococcus mutans [10] = test: Antibacterial activity against Streptococcus mutans ATCC 25175 assessed as effect on planktonic growth at 2.73 ug/ml after 20 hrs relative to control; assay type: functional
[11] = system: Staphylococcus epidermidis; test: Antibacterial activity against Staphylococcus epidermidis ATCC 35547 assessed as effect on planktonic growth at 21.9 ug/ml after 20 hrs relative to control; assay type: functional
Staphylococcus aureus [12] = test: Antibacterial activity against Staphylococcus aureus ATCC 25923 assessed as effect on planktonic growth at 5.5 ug/ml after 20 hrs relative to control; assay type: functional
Staphylococcus aureus [13] = test: Antibacterial activity against Staphylococcus aureus ATCC 25923 assessed as effect on planktonic growth at 0.68 ug/ml after 20 hrs relative to control; assay type: functional
Streptococcus mutans [14] = test: Antibacterial activity against Streptococcus mutans ATCC 25175 assessed as effect on planktonic growth at 21.9 ug/ml after 20 hrs relative to control; assay type: functional
Streptococcus mutans [15] = test: Antibacterial activity against Streptococcus mutans ATCC 25175 assessed as effect on planktonic growth at 10.9 ug/ml after 20 hrs relative to control; assay type: functional
Streptococcus mutans [16] = test: Antibacterial activity against Streptococcus mutans ATCC 25175 assessed as effect on planktonic growth at 0.68 ug/ml after 20 hrs relative to control; assay type: functional
[17] = system: Staphylococcus epidermidis; test: Antibacterial activity against Staphylococcus epidermidis ATCC 35547 assessed as effect on planktonic growth at 87.5 ug/ml after 20 hrs relative to control; assay type: functional
Pseudomonas aeruginosa [18] = test: Antibacterial activity against Pseudomonas aeruginosa ATCC 27853 assessed as effect on planktonic growth at 0.34 ug/ml after 20 hrs relative to control; assay type: functional
Pseudomonas aeruginosa [19] = test: Antibacterial activity against Pseudomonas aeruginosa ATCC 27853 assessed as effect on planktonic growth at 0.17 ug/ml after 20 hrs relative to control; assay type: functional
Pseudomonas aeruginosa [20] = test: Antibacterial activity against Pseudomonas aeruginosa ATCC 27853 assessed as effect on planktonic growth at 1.37 ug/ml after 20 hrs relative to control; assay type: functional
Staphylococcus aureus [21] = test: Antibacterial activity against Staphylococcus aureus ATCC 25923 assessed as effect on planktonic growth at 21.9 ug/ml after 20 hrs relative to control; assay type: functional
[22] = system: Staphylococcus epidermidis; test: Antibacterial activity against Staphylococcus epidermidis ATCC 35547 assessed as effect on planktonic growth at 5.5 ug/ml after 20 hrs relative to control; assay type: functional
Staphylococcus aureus [23] = test: Antibacterial activity against Staphylococcus aureus ATCC 25923 assessed as effect on planktonic growth at 0.34 ug/ml after 20 hrs relative to control; assay type: functional
Streptococcus mutans [24] = test: Antibacterial activity against Streptococcus mutans ATCC 25175 assessed as effect on planktonic growth at 87.5 ug/ml after 20 hrs relative to control; assay type: functional
Streptococcus mutans [25] = test: Antibacterial activity against Streptococcus mutans ATCC 25175 assessed as effect on planktonic growth at 43.8 ug/ml after 20 hrs relative to control; assay type: functional
[26] = system: Staphylococcus epidermidis; test: Antibacterial activity against Staphylococcus epidermidis ATCC 35547 assessed as effect on planktonic growth at 1.37 ug/ml after 20 hrs relative to control; assay type: functional
Pseudomonas aeruginosa [27] = test: Antibacterial activity against Pseudomonas aeruginosa ATCC 27853 assessed as effect on planktonic growth at 10.9 ug/ml after 20 hrs relative to control; assay type: functional
[28] = system: Staphylococcus epidermidis; test: Antibacterial activity against Staphylococcus epidermidis ATCC 35547 assessed as effect on planktonic growth at 10.9 ug/ml after 20 hrs relative to control; assay type: functional
Pseudomonas aeruginosa [29] = test: Antibacterial activity against Pseudomonas aeruginosa ATCC 27853 assessed as effect on planktonic growth at 2.73 ug/ml after 20 hrs relative to control; assay type: functional
Pseudomonas aeruginosa [30] = test: Antibacterial activity against Pseudomonas aeruginosa ATCC 27853 assessed as effect on planktonic growth at 21.9 ug/ml after 20 hrs relative to control; assay type: functional
Streptococcus mutans [31] = test: Antibacterial activity against Streptococcus mutans ATCC 25175 assessed as effect on planktonic growth at 5.5 ug/ml after 20 hrs relative to control; assay type: functional
[32] = system: Staphylococcus epidermidis; test: Antibacterial activity against Staphylococcus epidermidis ATCC 35547 assessed as effect on planktonic growth at 0.34 ug/ml after 20 hrs relative to control; assay type: functional
Pseudomonas aeruginosa [33] = test: Antibacterial activity against Pseudomonas aeruginosa ATCC 27853 assessed as effect on planktonic growth at 5.5 ug/ml after 20 hrs relative to control; assay type: functional
Streptococcus mutans [34] = test: Antibacterial activity against Streptococcus mutans ATCC 25175 assessed as effect on planktonic growth at 0.34 ug/ml after 20 hrs relative to control; assay type: functional
Staphylococcus aureus [35] = test: Antibacterial activity against Staphylococcus aureus ATCC 25923 assessed as effect on planktonic growth at 1.37 ug/ml after 20 hrs relative to control; assay type: functional
Pseudomonas aeruginosa [36] = test: Antibacterial activity against Pseudomonas aeruginosa ATCC 27853 assessed as inhibition of biofilm formation after 20 hrs by crystal-violet staining method; assay type: functional, organism-based; settings: for IC50: ATCC 27853, 20 h
Pseudomonas aeruginosa [37] = test: Antibacterial activity against Pseudomonas aeruginosa ATCC 27853 assessed as effect on planktonic growth at 87.5 ug/ml after 20 hrs relative to control; assay type: functional
Pseudomonas aeruginosa [38] = test: Antibacterial activity against Pseudomonas aeruginosa ATCC 27853 assessed as effect on planktonic growth at 0.68 ug/ml after 20 hrs relative to control; assay type: functional
Staphylococcus aureus [39] = test: Antibacterial activity against Staphylococcus aureus ATCC 25923 assessed as effect on planktonic growth at 0.17 ug/ml after 20 hrs relative to control; assay type: functional
[40] = system: Staphylococcus epidermidis; test: Antibacterial activity against Staphylococcus epidermidis ATCC 35547 assessed as inhibition of biofilm formation after 20 hrs by crystal-violet staining method; assay type: functional, organism-based; settings: for IC50: ATCC 35547, 20 h
[41] = system: Staphylococcus epidermidis; test: Antibacterial activity against Staphylococcus epidermidis ATCC 35547 assessed as effect on planktonic growth at 2.73 ug/ml after 20 hrs relative to control; assay type: functional
Pseudomonas aeruginosa [42] = test: Antibacterial activity against Pseudomonas aeruginosa ATCC 27853 assessed as effect on planktonic growth at 43.8 ug/ml after 20 hrs relative to control; assay type: functional

For `COc1ccc(C)cc1C1=C(Br)C(=O)N(CC(C)C)C1(O)Cc1ccccc1Cl` (stereo not drawn), the Activity (Staphylococcus aureus [1]) was 2.25%, the Activity (Streptococcus mutans [2]) was 7.3% and the Activity (Streptococcus mutans [3]) was 12.6%. For the same compound, the Activity (Staphylococcus aureus [4]) was -6.75%, the Activity [5] was 48.3% and the Activity (Staphylococcus aureus [6]) was 0.5%. For the same compound, the Activity (Staphylococcus aureus [7]) was 16.5%, the Activity [8] was 6% and the Activity [9] was 2.7%. It also gave an Activity (Streptococcus mutans [10]) of 30.7%, an Activity [11] of 34.6% and an Activity (Staphylococcus aureus [12]) of 5%. For the same compound, the Activity (Staphylococcus aureus [13]) was -2.5%, the Activity (Streptococcus mutans [14]) was 39.8% and the Activity (Streptococcus mutans [15]) was 28.7%. The Activity (Streptococcus mutans [16]) was 13%, the Activity [17] was 60.7% and the Activity (Pseudomonas aeruginosa [18]) was -4.5%. For the same compound, the Activity (Pseudomonas aeruginosa [19]) was -2.5%, the Activity (Pseudomonas aeruginosa [20]) was -7.4% and the Activity (Staphylococcus aureus [21]) was -10.75%. For the same compound, the Activity [22] was 16.5%, the Activity (Staphylococcus aureus [23]) was -0.5% and the Activity (Streptococcus mutans [24]) was 15.3%. The Activity (Streptococcus mutans [25]) was 27.2%, the Activity [26] was 6.4% and the Activity (Pseudomonas aeruginosa [27]) was -17.5%. For the same compound, the Activity [28] was 22.6%, the Activity (Pseudomonas aeruginosa [29]) was -20.3% and the Activity (Pseudomonas aeruginosa [30]) was -5.6%. For the same compound, the Activity (Streptococcus mutans [31]) was 35.6%, the Activity [32] was 24.8% and the Activity (Pseudomonas aeruginosa [33]) was -17.6%. For the same compound, the Activity (Streptococcus mutans [34]) was 11.1%, the Activity (Staphylococcus aureus [35]) was -3% and the inhibition (Pseudomonas aeruginosa [36]) was “Dose-dependent effect”. For the same compound, the IC50 (Pseudomonas aeruginosa [36]) was > 87.5 µg/mL, the Activity (Pseudomonas aeruginosa [37]) was 32.5% and the Activity (Pseudomonas aeruginosa [38]) was -4.7%. For the same compound, the Activity (Staphylococcus aureus [39]) was -1.25%, the inhibition [40] was “Dose-dependent effect” and the IC50 [40] was > 87.5 µg/mL. It also gave an Activity [41] of 2.8% and an Activity (Pseudomonas aeruginosa [42]) of 17.1%.

Work on `COc1ccc(Br)cc1C1=C(Br)C(=O)N(CC(C)C)/C1=C\c1cccc(Cl)c1` yielded an Activity (Staphylococcus aureus [1]) of 16.3%, an Activity (Streptococcus mutans [2]) of -1.2% and an Activity (Streptococcus mutans [3]) of 2.7%. It also gave an Activity (Staphylococcus aureus [4]) of 2.4%, an Activity [5] of 84.7% and an Activity (Staphylococcus aureus [6]) of -2.7%. It also gave an Activity (Staphylococcus aureus [7]) of 18.4%, an Activity [8] of 2.2% and an Activity [9] of 5.6%. For the same compound, the Activity (Streptococcus mutans [10]) was -6.2%, the Activity [11] was 57.9% and the Activity (Staphylococcus aureus [12]) was 0.5%. For the same compound, the Activity (Staphylococcus aureus [13]) was 1.1%, the Activity (Streptococcus mutans [14]) was -10.1% and the Activity (Streptococcus mutans [15]) was -19.1%. For the same compound, the Activity (Streptococcus mutans [16]) was 11.4%, the Activity [17] was 72.2% and the Activity (Pseudomonas aeruginosa [18]) was -4.4%. The Activity (Pseudomonas aeruginosa [19]) was 0.6%, the Activity (Pseudomonas aeruginosa [20]) was 3% and the Activity (Staphylococcus aureus [21]) was 5.1%. It also gave an Activity [22] of 2.1%, an Activity (Staphylococcus aureus [23]) of -1.1% and an Activity (Streptococcus mutans [24]) of -4%. It also gave an Activity (Streptococcus mutans [25]) of -15.3%, an Activity [26] of 9.8% and an Activity (Pseudomonas aeruginosa [27]) of -9%. It also gave an Activity [28] of 23.2%, an Activity (Pseudomonas aeruginosa [29]) of 0.1% and an Activity (Pseudomonas aeruginosa [30]) of -4.8%. For the same compound, the Activity (Streptococcus mutans [31]) was 1.5%, the Activity [32] was 6.4% and the Activity (Pseudomonas aeruginosa [33]) was -3.1%. The Activity (Streptococcus mutans [34]) was 6.7%, the Activity (Staphylococcus aureus [35]) was -7.2% and the inhibition (Pseudomonas aeruginosa [36]) was “Dose-dependent effect”. The IC50 (Pseudomonas aeruginosa [36]) was > 87.5 µg/mL, the Activity (Pseudomonas aeruginosa [37]) was 14.6% and the Activity (Pseudomonas aeruginosa [38]) was -0.3%. The Activity (Staphylococcus aureus [39]) was -3.5%, the inhibition [40] was “Dose-dependent effect” and the IC50 [40] was 31.1 µg/mL (≈ 59.2 µM). The Activity [41] was 6.8% and the Activity (Pseudomonas aeruginosa [42]) was -5.6%.
